PubChem BioAssay AID2060604 (Molecular Pharmacology Branch, DTP, NCI, 2025)
Where “and” joins values, the source holds several entries; their conditions need not be identical. Identical values can stand only once.

Tested on: 379773-124-R-J2-PDC complex spheroids, viability % test/control
Experiment: Anticancer human tumor 379773-124-R-J2-PDC patient-derived endometrial carcinoma cell line growth inhibition [CLK]
Conditions: for viability, T/C: stronger effect = lower value; active means viability on the fitted dose curve at most 10% of control; inactive means the rest
From the text: A high-throughput screen of multi-cell type tumor spheroids was designed to identify active combinations of […] and targeted small molecules. Complex spheroids include a stromal component modeled by human endothelial cells (HUVEC) and fibroblasts modeled by human mesenchymal stem cells (MSCs). The concentration ranges selected for each drug and investigational agent were based upon clinically achievable concentrations if the clinical Cmax of the agent was known.
Compounds. The drugs and investigational agents: cirtuvivint (SM08502; NSC835563), CC-671 (NSC850746), vemurafenib (NSC761431), tapotoclax (NSC804041), sotorasib (NSC818433), adagrasib (NSC831453), MRTX-1133 (NSC836407), BAY2416964 (NSC825713), copanlisib (NSC816437), inavolisib (NSC800729), abemaciclib (NSC768073), osimertinib (NSC779217), entinostat (NSC756642), eltanexor (KPT-8602, NSC794443), venetoclax (NSC766270), ceralasertib (NSC777638), bortezomib (NSC756655), olaparib (NSC753686), talazoparib (NSC767125), alisertib (NSC759677), peposertib (NSC802822), gemcitabine (NSC613327), 5-fluorouracil (NSC19893), SN-38 (NSC673596), oxaliplatin (NSC266046), paclitaxel (NSC125973), and doxorubicin (NSC123127), were obtained from the National Cancer Institute (NCI) Developmental Therapeutics Program Chemical Repository. The FDA-approved anticancer drug set is available from the Developmental Therapeutics Program at https://dtp.cancer.gov/organization/dscb/obtaining/available plates.htm. […] The stock solutions were prepared in dimethyl sulfoxide (DMSO, Sigma-Aldrich, St. Louis, MO, cat. D2650), except for the platinum complexes which were prepared in saline (Quality Biological, Gaithersburg, MD, cat. 114-055-101), at 800-fold the tested concentration and stored at -70 degrees C prior to their use. All drugs and investigational agents were tested over a range starting from a high concentration at or near the clinical Cmax and decreasing in half-log increments. If the clinical Cmax for an agent had not been determined, the highest concentration tested was 10 microM.
Cell Culture. All cells were maintained in an incubator at 37 degrees C and 5% CO2 with 95% humidity. The PDC lines were cultured according to standard operating procedures established by the NCI PDMR. Briefly, all PDCs were thawed and cultured in Matrigel-coated flasks prepared with a working solution of 1X Ham's F-12 nutrient mix, without supplementation (Invitrogen, Waltham, MA, cat. 11765054), 100 U/mL penicillin-streptomycin (Invitrogen, cat. 15140122), and 2.5% Matrigel (Corning Inc., Corning, NY, cat. 354248) for the first three passages. The 947758-054-R-J2-PDC line was cultured in 6B/Colon 1A media, which includes advanced DMEM/F-12 (Thermo Fisher Scientific, cat. 12634028), 10 mM HEPES (Thermo Fisher Scientific, cat. 15630080), 1X GlutaMAX supplement (Thermo Fisher Scientific, cat. 35050061), 0.1 mg/mL primocin (InvivoGen, cat. ant-pm-2), 10% defined fetal bovine serum, heat inactivated (HyClone Laboratories Inc., cat. SH30070.03HI), 1.25 mM N-Acetyl-L-cysteine (Sigma-Aldrich, cat. A9165), 10 mM nicotinamide (Sigma-Aldrich, cat. N0636), 1X B-27 supplement (Thermo Fisher Scientific, cat. 17504044), 1X N-2 supplement (Thermo Fisher Scientific, cat. 17502048), and 10 microM Y-27632 dihydrochloride (Tocris Bioscience, cat. 1254). The 876862-298-R-J1-PDC was cultured in 6E media, which includes all 6B/Colon 1A media components plus 50% L-WRN conditioned media (ATCC, cat. CRL-3276), 50 ng/mL recombinant human EGF recombinant protein (hEGF; Thermo Fisher Scientific, cat. PHG0311), 10 ng/mL recombinant human fibroblast growth factor 10 (hGFG-10; PeproTech, cat. 100-26), 1 ng/mL recombinant human fibroblast growth factor 2 (hFGF-2; PeproTech, cat. 100-18B), and 1 µM prostaglandin E2 (PGE2; Tocris, cat. 2296). The 227483-062-R1-J1-PDC line was cultured in Panc media, containing all 6E components except hFGF-2, with the addition of 500 nM SB-431542 (Selleckchem, cat. S1067) and 10 nM gastrin (Tocris, cat. 3006). […]
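Further: compound exposure lasted seven days before the viability readout.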
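Wherever viability, T/C is given: 100% = DMSO vehicle control wells.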

CC(=O)O[C@H]1C(=O)[C@@]2(C)[C@H]([C@H](OC(=O)c3ccccc3)[C@]3(O)C[C@H](OC(=O)[C@H](O)[C@@H](NC(=O)c4ccccc4)c4ccccc4)C(C)=C1C3(C)C)[C@]1(OC(C)=O)CO[C@@H]1C[C@@H]2O
< 31.6 nM: IC50 (curve of compound)
active: viability, T/C (compound 0.0316 µM) 6.12% and 4.78% | viability, T/C (compound 0.1 µM) 5.31% and 6.44% | viability, T/C (compound 0.316 µM) 6.35% and 7.02% | viability, T/C (compound 1 µM) 6.24% and 5.61% | viability, T/C (compound 3.16 µM) 4.99% and 3.42% | viability, T/C (compound 10 µM) 6.18% and 4.64%

COc1ccc([C@@H](O)c2cc(-c3ncnc4cc(N5CCOCC5)ccc34)c(F)cc2Cl)nn1
inactive: viability, T/C (compound 0.0316 µM) 95.4% and 83.8% | viability, T/C (compound 0.1 µM) 98.1% and 79.4% | viability, T/C (compound 0.316 µM) 81.3% and 79.2% | viability, T/C (compound 1 µM) 84.2% and 84.5% | viability, T/C (compound 3.16 µM) 68% and 79% | viability, T/C (compound 10 µM) 33.4% and 29.9%
5670 nM and 6250 nM: IC50 (curve of compound)

COc1cccc2c1C(=O)c1c(O)c3c(c(O)c1C2=O)CC(O)(C(=O)CO)CC3OC1CC(N)C(O)C(C)O1 (stereo not drawn)
active: viability, T/C (compound 0.316 µM) 7.51% and 5.56% | viability, T/C (compound 1 µM) 3.51% and 3.77% | viability, T/C (compound 3.16 µM) 1.61% and 0.59% | viability, T/C (compound 10 µM) 0.12% and 0.15%
34.5 nM and < 31.6 nM: IC50 (curve of compound)
inactive: viability, T/C (compound 0.0316 µM) 53.6% and 49.6% | viability, T/C (compound 0.1 µM) 9.76% and 9.37%

C=CC(=O)N1CCN(c2nc(=O)n(-c3c(C)ccnc3C(C)C)c3nc(-c4c(O)cccc4F)c(F)cc23)C(C)C1 (stereo not drawn) + CN1CCN(c2cc(C(=O)Nc3cc4cc(-c5cnn(C)c5)ccc4cn3)ccn2)CC1
< 31.6 nM: IC50 (curve of first compound, second compound 0.316 µM) | IC50 (curve of first compound, second compound 1 µM) | IC50 (curve of first compound, second compound 3.16 µM) | IC50 (curve of first compound, second compound 10 µM)
active: viability, T/C (second compound 1 µM, first compound 0.0316 µM) 0.15% | viability, T/C (second compound 1 µM, first compound 0.1 µM) 3.06% | viability, T/C (second compound 1 µM, first compound 0.316 µM) 0.25% | viability, T/C (second compound 1 µM, first compound 1 µM) 1.12% | viability, T/C (second compound 1 µM, first compound 3.16 µM) 1.01% | viability, T/C (second compound 1 µM, first compound 10 µM) 0.17% | viability, T/C (second compound 3.16 µM, first compound 0.0316 µM) 0.18% | viability, T/C (second compound 3.16 µM, first compound 0.1 µM) 0.13% | viability, T/C (second compound 3.16 µM, first compound 0.316 µM) 0.13% | viability, T/C (second compound 3.16 µM, first compound 1 µM) 0.34% | viability, T/C (second compound 3.16 µM, first compound 3.16 µM) 1.33% | viability, T/C (second compound 3.16 µM, first compound 10 µM) 1.3% | viability, T/C (second compound 10 µM, first compound 0.0316 µM) 0.12% | viability, T/C (second compound 10 µM, first compound 0.1 µM) 0.54% | viability, T/C (second compound 10 µM, first compound 0.316 µM) 1.42% | viability, T/C (second compound 10 µM, first compound 1 µM) 0.17% | viability, T/C (second compound 10 µM, first compound 3.16 µM) 1.04% | viability, T/C (second compound 10 µM, first compound 10 µM) 0.5%
inactive: viability, T/C (second compound 0.0316 µM, first compound 0.0316 µM) 105% | viability, T/C (second compound 0.0316 µM, first compound 0.1 µM) 92.5% | viability, T/C (second compound 0.0316 µM, first compound 0.316 µM) 91.2% | viability, T/C (second compound 0.0316 µM, first compound 1 µM) 94.4% | viability, T/C (second compound 0.0316 µM, first compound 3.16 µM) 84.6% | viability, T/C (second compound 0.0316 µM, first compound 10 µM) 75.2% | viability, T/C (second compound 0.1 µM, first compound 0.0316 µM) 85.5% | viability, T/C (second compound 0.1 µM, first compound 0.1 µM) 79.2% | viability, T/C (second compound 0.1 µM, first compound 0.316 µM) 72.5% | viability, T/C (second compound 0.1 µM, first compound 1 µM) 88.1% | viability, T/C (second compound 0.1 µM, first compound 3.16 µM) 84.2% | viability, T/C (second compound 0.1 µM, first compound 10 µM) 62.5% | viability, T/C (second compound 0.316 µM, first compound 0.0316 µM) 29.6% | viability, T/C (second compound 0.316 µM, first compound 0.1 µM) 32.8% | viability, T/C (second compound 0.316 µM, first compound 0.316 µM) 29.3% | viability, T/C (second compound 0.316 µM, first compound 1 µM) 29.2% | viability, T/C (second compound 0.316 µM, first compound 3.16 µM) 38.5% | viability, T/C (second compound 0.316 µM, first compound 10 µM) 13.2%
> 10000 nM: IC50 (curve of first compound, second compound 0.0316 µM) | IC50 (curve of first compound, second compound 0.1 µM)
